Data set [1] can be described thus: SPE binding and recovery of flavonoid standards from freshly prepared Oasis HLB cartridges. It is filed as physicochemical. The settings on record: 10, 15, and 20 ppm standard solutions. As for the experimental part:
In addition, on-column standards were prepared from the fresh standards. Unidirectional flow Oasis® HLB, 30 mg sorbent 1 mL cartridges were used as the solid phase extraction column. The appropriate amounts of standard compounds corresponding to 10-30 ppm were adsorbed to SPE sorbent Oasis® HLB cartridges.
The SPE columns were activated with 1 mL methanol and equilibrated with 1 mL water. The cartridges loaded with standard compound solutions dried and were stored in vacuum sealed packing.
The columns were stored for several days. The columns were washed with 1:1 methanol/water. Elution was performed twice with 500 μL 10% formic acid in methanol. HPLC-UV and ESI-MS were used to quantify the target compounds.

Data set [2] is classed as physicochemical. As for the experimental part: All three solutions were combined to a final volume of 10.0 mL using pure methanol. From this stock solution, working standards at net final concentration of 10-30 ppm (each) were prepared by appropriate dilution of the stock solution into 1:1 methanol/water, v/v. All working solutions were stored at −20° C. as well as stored at room temperature (stability was monitored after 4 hours, 1 day, 3 days, 7 days, 10 days and 28 days' storage at room temperature) to monitor the extent of degradation.
Degradation Kinetics (0-28 Days) for wet storage at room temperature.
The stability of flavonoids was compared at wet storage (solution form at room temperature and at −20° C.) and dry storage (room temperature bound to sorbent and dry form in an open Eppendorf vial).

A short description of data set [3]: Bound and recovery of PAH standards on PS-DVB on-column standards after 15 days of storage. It is filed as physicochemical. The settings on record: standards 0.1-9 ppm; for Average % Bound: PS-DVB pipette tip columns; for Average % Recovered: after 15 days of storage of on-column standards. As for the experimental part:
Primary stock solutions of PAHs, namely B(a)A, Ch, B(b)F and B(a)P, were prepared by dissolving 1-2 mg of each compound in 10.0 mL methanol separately. From these stock solutions, secondary working standard stock solutions were mixed together to constitute the working standards containing all the standards mixed together. The secondary standard mixtures were prepared to have final concentrations of 0.1-10 ppm. All primary and secondary working solutions were stored at −20° C.
PS-DVB 160 μL resin bed volume pipette tip columns (50 mg resin, particle size 70-100 μm particle size, 950 m^2/g surface area) from PhyNexus® (San Jose, CA) were activated with 500 μL of 1:1 methanol/water through five times recycling of the activation solution. The loading was achieved through ten times recycling of the 500 μL sample. Washing was carried out once, with 1:1 methanol/water (ten times recycling of 500 μL wash solution). After washing, the sorbent was dried for 1 minute through flushing ambient air in and out of the tip and then air dried and stored for 15 days.
PS-DVB sorbent retains PAHs due to strong π-π interactions between sorbent and PAHs. The PS/DVB on-column standards were prepared by loading 0.1, 0.3, 0.5, 0.7, 0.9, 1, 3, 5, 7, and 9 ppm standard mixtures. These corresponded to 50, 150, 250, 350, 450, 500, 1500, 2500, 3500, and 4500 ng by weight of each of the four PAH standards contained in the secondary standard mixture.

The structures appear in SMILES notation. Like-named read-outs stand apart in the source and are kept apart here.

Take `O=c1c(O)c(-c2ccc(O)cc2)oc2cc(O)cc(O)c12` [Kaempferol, kaempferol]: the “Bound % (Oasis ® HLB, 30 mg, 1 ml sorbent)” value (shortened to “Bound %”) in data set [1] amounted to 100%.

`O=c1c(O)c(-c2cc(O)c(O)c(O)c2)oc2cc(O)cc(O)c12` [Myricetin, myricetin]: the “Bound %” value in data set [1] turned out to be 100%. Moreover, the percent degradation was 0% in data set [2] (0 h, 10 ppm); 0% in data set [2] (0 h, 15 ppm); 0% in data set [2] (0 h, 20 ppm); 0% in data set [2] (0 h, 25 ppm); 0% in data set [2] (0 h, 30 ppm); −0.4796% in data set [2] (4 h, 10 ppm). In addition, the percent degradation in data set [2] (4 h, 15 ppm) is listed as −0.6270%; in data set [2] (4 h, 20 ppm), 1.520%; in data set [2] (4 h, 25 ppm), 0.1736%; in data set [2] (4 h, 30 ppm), 0.4265%; in data set [2] (1 day, 10 ppm), −0.9592%; in data set [2] (1 day, 15 ppm) it was 0.3134%. In addition, the percent degradation in data set [2] (1 day, 20 ppm) turned out to be 2.690%; in data set [2] (1 day, 25 ppm) it was 3.211%; in data set [2] (1 day, 30 ppm) it was 0.9239%; in data set [2] (3 days, 10 ppm), 4.556%; in data set [2] (3 days, 15 ppm), 5.015%; in data set [2] (3 days, 20 ppm) it was 6.901%. Further, the percent degradation was 5.990% in data set [2] (3 days, 25 ppm); 3.767% in data set [2] (3 days, 30 ppm); 11.27% in data set [2] (7 days, 10 ppm); 9.404% in data set [2] (7 days, 15 ppm); 12.74% in data set [2] (7 days, 20 ppm); 10.67% in data set [2] (7 days, 25 ppm). Also, the percent degradation in data set [2] (7 days, 30 ppm) is listed as 8.319%; in data set [2] (10 days, 10 ppm) it was 12.47%; in data set [2] (10 days, 15 ppm) it was 10.66%; in data set [2] (10 days, 20 ppm), 12.63%; in data set [2] (10 days, 25 ppm), 9.982%; in data set [2] (10 days, 30 ppm), 7.747%. Also, the percent degradation came to 30.46% in data set [2] (28 days, 10 ppm); 31.97% in data set [2] (28 days, 15 ppm); 22.92% in data set [2] (28 days, 20 ppm); 19.36% in data set [2] (28 days, 25 ppm); 17.13% in data set [2] (28 days, 30 ppm).

As to `c1ccc2c(c1)-c1cccc3c1c-2cc1ccccc13` [Benzo(b)fluoranthene (B(b)F), Benzo(b)fluoranthene], in data set [3], the “Average % Bound” value is 95-99% and the “Average % Recovered” value is recorded as 90-97%.

Regarding `c1ccc2cc3c(ccc4ccccc43)cc2c1` [Benz(a)anthracene (B(a)A), Benz(a)anthracene], in data set [3], the “Average % Bound” value is 95-99% and the “Average % Recovered” value is recorded as 100-102%.

With `c1ccc2c(c1)ccc1c3ccccc3ccc21` [Chrysene (Ch), Chrysene], in data set [3], the “Average % Bound” value is on record as 95-99% and the “Average % Recovered” value was 100-102%.

Consider `c1ccc2c(c1)cc1ccc3cccc4ccc2c1c34` [Benzo(a)pyrene (B(a)P), Benzo(a)pyrene], for which, in data set [3], the “Average % Bound” value is 95-99% and the “Average % Recovered” value was 96-100%.

With `O=c1c(O)c(-c2ccc(O)c(O)c2)oc2cc(O)cc(O)c12` [Quercetin, quercetin], the “Bound %” value in data set [1] amounted to 100%. Further, the percent degradation in data set [2] (0 h, 10 ppm) is 0%; in data set [2] (0 h, 15 ppm), 0%; in data set [2] (0 h, 20 ppm) it was 0%; in data set [2] (0 h, 25 ppm), 0%; in data set [2] (0 h, 30 ppm) it was 0%; in data set [2] (4 h, 10 ppm), −0.4024%. The percent degradation in data set [2] (4 h, 15 ppm) is 0.1356%; in data set [2] (4 h, 20 ppm), −0.4094%; in data set [2] (4 h, 25 ppm) it was 0.4552%; in data set [2] (4 h, 30 ppm) it was −0.3121%; in data set [2] (1 day, 10 ppm), 0.4024%; in data set [2] (1 day, 15 ppm) it was −0.4070%. Moreover, the percent degradation in data set [2] (1 day, 20 ppm) is listed as 0.1023%; in data set [2] (1 day, 25 ppm), 1.442%; in data set [2] (1 day, 30 ppm), −0.2496%; in data set [2] (3 days, 10 ppm) it was 3.822%; in data set [2] (3 days, 15 ppm) it was 2.442%; in data set [2] (3 days, 20 ppm), 1.842%. Also, the percent degradation in data set [2] (3 days, 25 ppm) is on record as 2.656%; in data set [2] (3 days, 30 ppm) it was 0.9363%; in data set [2] (7 days, 10 ppm), 6.237%; in data set [2] (7 days, 15 ppm), 3.799%; in data set [2] (7 days, 20 ppm), 4.811%; in data set [2] (7 days, 25 ppm) it was 4.780%. Further, the percent degradation in data set [2] (7 days, 30 ppm) stood at 3.246%; in data set [2] (10 days, 10 ppm), 5.432%; in data set [2] (10 days, 15 ppm), 3.664%; in data set [2] (10 days, 20 ppm), 3.480%; in data set [2] (10 days, 25 ppm), 3.414%; in data set [2] (10 days, 30 ppm) it was 2.871%. For the same compound, the percent degradation in data set [2] (28 days, 10 ppm) is recorded as 12.47%; in data set [2] (28 days, 15 ppm) it was 9.633%; in data set [2] (28 days, 20 ppm), 7.881%; in data set [2] (28 days, 25 ppm) it was 6.525%; in data set [2] (28 days, 30 ppm), 5.056%.

These data come from US12269012B2, “Columns and methods of use for analytical standards and compounds” (priority 2018, dated 2025).
